Data on four compounds can be found in patent US20050163737A1, “Deodorant cosmetic composition comprising a combination of zinc pidolate and an antiperspirant aluminum salt” (priority 2003, published 2005).

Data set [1] is described as follows: Deodorant efficacy test: odor intensity of incubated underarm sweat, expert panel. Also noted: species or system human. Conditions: 24 hours at 37° C, vs control sweat. The procedure:
Protocol of the Deodorant Efficacy Test
Collections of underarm sweat were taken in a sauna from 6 volunteers; the samples of individual sweat, were stored in ice for a few hours, and were at this point virtually odorless. They were then mixed together and divided into 1 ml aliquots. The active agents were added to these aliquots, which were then incubated in an oven at 37° C. After incubation for 24 hours, a panel of experts evaluated the intensity of the odor in comparison with a control sample: 1 ml of sweat incubated without agent.
The results were expressed as a percentage of variation of the intensity of the odor in comparison with the control sweat sample (mean of the percentages of variation at T24h).

For data set [2] the following is noted: cited from earlier work.

Turning to `Oc1cc(Cl)ccc1Oc1ccc(Cl)cc1Cl` [(B), 2,4,4′-trichloro-2′-hydroxydiphenyl ether], in data set [1] (0.4 mg AM/ml of sweat (total)), the “% of Reduction in the Intensity of the Odor” value (“% of Reduction” below) was −49%. Also, the Solubility in water result in data set [2] is “insoluble”. For aluminum chlorohydrate [ACH], the “% of Reduction” value in data set [1] (0.1 mg AM/ml of sweat) was −37%; in data set [1] (0.2 mg AM/ml of sweat (total)) it was −47%. The like results for zinc pidolate [(A)] were, in that order, −47% and −47%. As for zinc ricinoleate [(C)], the “% of Reduction” value in data set [1] (0.3 mg AM/ml of sweat) is listed as −4%.
